In paper PMC9369442, “Synthetic Peucedanocoumarin IV Prevents α-Synuclein Neurotoxicity in an Animal Model of Parkinson’s Disease” (International Journal of Molecular Sciences, 2022):

What was measured:
recombinant α-synuclein = target: T1, recombinant α-synuclein (Homo sapiens, UniProt P37840); assay: In vitro recombinant α-synuclein aggregation, Western blot; format: biochemical; details: 100 μM, 37 °C, 3 or 5 days
T1 construct: made in house; host or cells: Escherichia coli BL21
Description: Figure 2 PCiv prevents α-synuclein aggregation in vitro and in cultured neurons with PFF treatment. (A) Representative Western blots showing the degree of recombinant α-synuclein (αSyn) aggregation in a test tube in the presence or absence of PCiv (100 μM) at the indicated incubation duration (phosphate-buffered saline [PBS], 37 °C for 3 or 5 days). Aggregation of α-synuclein was determined using α-synuclein antibody. (B) Quantification of the relative amount of α-synuclein aggregate in high molecular weight sizes in panel A (n = 3 per group). […] (D) Quantification of pS129-αSyn immunofluorescence signal intensities in MAP2-positive cortical neurons in each experimental group (n = 15 cells from three separate experiments). (E) Cell viability assessment in the indicated experimental groups was monitored by CCK-8 assay (n = 3 per group). The data are expressed as means ± SEMs. * p < 0.05, ** p < 0.01, *** p < 0.001, and **** p < 0.0001, ANOVA test followed by Tukey’s post hoc analysis. […]
(A) Representative Western blots showing the degree of recombinant α-synuclein (αSyn) aggregation in a test tube in the presence or absence of t-Khellatone, PCiii, and PCiv (100 μM) at 0 and 5 days of incubation (phosphate-buffered saline [PBS], 37 °C for 5 days). Aggregation of α-synuclein was determined using α- synuclein antibody. […]

[1] = test system: SH-SY5Y cells with Tet-Off conditional expression of β23; assay: Trypan blue exclusion cell viability assay, Tet-Off β23 expression; format: cell-based; details: 1 μM, 24 h
Description: Figure 1 Peucedanocoumarin IV (PCiv) inhibits β23 aggregations and cytotoxicity in SH-SY5Y cells. (A) Scheme showing the detailed experimental steps in the organic synthesis of racemic PCiv and racemic PCiii (rac-PCiii, and rac-PCiv). Both PCiii and PCiv used in this study are racemic forms. (B) Trypan blue exclusion cell viability assessment in SH-SY5Y cells with Tet-Off-induced β23 expressions. β23 was expressed for 24 h using the Tet-off system. Further expression of β23 was halted by doxycycline (Dox) treatment with simultaneous treatment of the PCiii, PCiv, or their synthetic intermediate, trans-khellatone (t-khellatone, 1 μM 24 h). Cell viability was assessed 24 h after doxycycline treatment (n = 5 per group). (C) Synthetic PCiv’s protective effect on Tet-Off-expressed β23 toxicity in SH-SY5Y cells compared with peucedanocoumarin III (PCiii) determined by trypan blue exclusion assay. (D) The degradation of β23 monitored by Western blot at 37 h after doxycycline (200 ng/mL) treatment. The representative Western blot image of HA (β23) in SH-SY5Y cells treated with synthetic PCiii, synthetic PCiv (1 μM, 37 h), or DMSO as a vehicle. (E) Quantification of HA (β23) expression in SH-SY5Y cells from the indicated experimental groups in panel D (n = 3 experiments per group). (F) Representative immunofluorescence of steady state HA (β23) expression in SH-SY5Y cells expressing Tet-Off regulatable reporter mCherry and HA-tagged β23. HA-β23 was expressed for 24 h using the Tet-off system. Further expression of β23 was halted by Dox treatment in the presence of PCiii or PCiv (1 μM, 37 h). (G) Quantification of HA (β23) immunofluorescence signal in mCherry positive SH-SY5Y cells in each experimental group (n = 32 cells from three separate experiments per group). The data are expressed as means ± SEMs. * p < 0.05, ** p < 0.01, *** p < 0.001, and **** p < 0.0001, ANOVA test followed by Tukey’s post hoc analysis. Two-way ANOVA was used in panel C.
Human neuroblastoma SH-SY5Y cells (ATCC, Manassas, VA, USA) were grown in complete media containing DMEMs, 10% fetal bovine serum (vol/vol), and antibiotics (penicillin-streptomycin 100 U/mL, Thermo Fisher Scientific, Waltham, MA, USA). The atmospheric condition used to preserve the cells consisted of 5% CO2/95% air at 37 °C and maintained a humidified environment. X-tremeGENE HP transfection reagents (Roche, Basel, Switzerland) were used for transient transfection of DNA constructs (pCMV-tTA, TetP-β23, and pTet-dual2 [5]) following the manufacturer’s instructions.
SH-SY5Y cells were plated in 12-well plates at a density of 0.2 × 10^6 cells per well. Following transient transfection with the indicated constructs and subsequent treatment protocol, the cells were harvested by trypsinization, thereby yielding single-cell suspensions. The cells were washed twice with phosphate-buffered saline (PBS) and resuspended in serum-free DMEM. The resuspended cells were mixed with an equal volume of 0.4% trypan blue (w/v) and incubated for 2 min at room temperature. Live and dead cells were counted using a Countess II Automated Cell Counter (Life Technologies, Carlsbad, CA, USA) for assessing cell viability.

## CC1(C)Oc2ccc3ccc(=O)oc3c2C(O)C1O (stereo not drawn) [trans-khellatone, reference compound]
Recombinant α-synuclein
  aggregation of recombinant α-synuclein into high molecular weight species: failed to prevent
[1]
  effect on β23-induced cytotoxicity: no effect
